Measured values from US20220023231A1, “METHOD OF TREATING POSTPRANDIAL INFLAMMATION AND PREVENTING WEIGHT GAIN” (DASMAN DIABETES INSTITUTE, priority 2020, published 2022).

What was measured:
THP-1 cells [1] = test: Flow cytometry (FACS) assessment of lipid accumulation in TNF-α stimulated THP-1 derived macrophages; format: cell-based, Human; conditions: in response to the presence of TNF-α
Experimental: (§1) Cell culture: Human monocytic leukemia cell line (THP-1) cells were purchased from American Type Culture Collection (ATCC). Cell cultures were maintained in RPMI-1640 culture medium (Gibco, Life Technologies, Grand Island, USA) supplemented with 10% fetal bovine serum (Gibco, Life Technologies, Grand Island, N.Y., USA), 2 mM glutamine (Gibco, Invitrogen, Grand Island, N.Y., USA), 1 mM sodium pyruvate, 10 mM HEPES, 100 ug/m1 Normocin 50 U/ml penicillin and 50 μg/m1 streptomycin (P/S; Gibco, Invitrogen, Grand Island, N.Y., USA) and incubated at 37° C. (with humidity) in 5% CO2.
(§2) Cell stimulation: Prior to stimulation, THP-1 cells were plated in 24-well plates (Costar, Corning Incorporated, Corning, N.Y., USA) at 5×10^5 cells/well cell density unless indicated otherwise. […]

[2] = system: pro-inflammatory monocytes (CD45+/Ly6C/CD11b+ cells); test: Acute high fat food feeding in mice, pro-inflammatory monocytes in blood by flow cytometry; format: in vivo, mouse
Experimental: Further experiments were developed to test the utility of Triacsin C as an anti-inflammatory and/or weight gain prevention drug in a mouse model. Base line blood samples were taken from each mouse before feeding. Mice were then administered either Triacsin C (10 mg/m1) or a vehicle (control) in a drinkable form 30 minutes prior to introducing them to high fat food. Four hours after food consumption another blood sample was collected from each mouse and the inflammatory response was measured using flow cytometry to look for pro-inflammatory monocytes (CD45^+/Ly6C/CD11b^+ cells). (See FIGS. 7(A)-7(B)) The experiment was repeated 5 times on non-consecutive days and also confirmed that the dose was safe.
(§3) A further experiment was designed to test whether constant daily doses of Triacsin C could prevent weight gain (or the development of obesity and other weight gain related diseases). […] Mice were placed on a constant high fat diet (HFD) for up to 5 weeks in the presence of a daily (drinkable) dose of either Triacsin C or the vehicle control (FIG. 9(A)).

human macrophages = test: Inflammatory and infiltration marker gene expression in human macrophages exposed to palmitic acid; format: cell-based; conditions: 30 minutes pre-treatment before addition of palmitic acid
THP-1 cells [3] = test: IL-1β ELISA and TNF-α / CD11b mRNA expression in macrophage cells after TNF-α; format: cell-based, Human; conditions: in response to TNF-α treatment
Experimental: as §1, §2

macrophage = test: Fatty acid uptake related gene expression and intracellular fat in macrophages/monocytes exposed to palmitic acid; format: cell-based
THP-1 cells [4] = test: Oil Red O staining of lipid accumulation in TNF-α stimulated THP-1 derived macrophages; format: cell-based, Human; conditions: in response to TNF-α (10 ng/ml)
Experimental: as §1, §2
Oil Red O staining: To determine the degree of lipid accumulation, the accumulation of cytoplasmic triglycerides in cells were measured by staining with Oil Red O (SigmaAldrich, St Louis, Mo., USA). […]

[5] = Constant high fat diet (HFD) in mice with daily drinkable dose; format: in vivo, mouse
Text: as §3

[6] = daily dose, HFD, versus vehicle control
[7] = low daily drinkable dose, HFD up to 5 weeks

| SMILES | lipid accumulation (FACS, cell size and granulation) (THP-1 cells [1]) | safety of the dose ([2]; 10 mg/m1 drinkable, repeated 5 times on non-consecutive days) | inflammatory response in monocytes (CD45+, Ly6C+, CD11b+ cells) ([2]; drinkable, 30 minutes prior to high fat food, blood four hours after food) | reduction of inflammatory upregulation ([2]; lower dose, four-hour acute high fat diet feeding) | pro-inflammatory monocytes ([2]; lower dose, four-hour acute high fat diet feeding, control 34.2%) | infiltration markers (CD11b, CCR2, CD80) (human macrophages) | upregulation of monocytic inflammatory markers (IL-1b, CD11c, HLA-DR) (human macrophages) | inflammatory markers (IL-1B protein, TNF-α mRNA, CD11b mRNA) (THP-1 cells [3]) | amount of intracellular fat found within monocytes (macrophage; data not shown) | expression of fatty acid uptake-related genes (macrophage; pre-treatment, response to palmitic acid (FIG. 5)) | lipid accumulation (Oil Red O staining) (THP-1 cells [4]) | adipose tissue (fat) of livers [5, 6] | liver size [5, 6] | increase in inflammatory monocytes from long term HFD [5, 7] | weight gain resulting from HFD [5, 7] |
| --- | --- | --- | --- | --- | --- | --- | --- | --- | --- | --- | --- | --- | --- | --- | --- |
| CCOC(=O)[C@@]1(CCCCCCOc2ccc(Cl)cc2)CO1 [Etomoxir] | increased lipid accumulation | – | – | – | – | – | – | – | – | – | – | – | – | – | – |
| CCC/C=C/C/C=C/C=C/C=NNN=O [Triacsin C, N-(((2E,4E,7E)-undeca-2,4,7-trienylidene)amino)nitrous amide] | no significant change in apparent lipid accumulation | safe | inhibit the inflammatory response in monocytes | 10% | 25.4% | reduce infiltration markers | reduce the upregulation of monocytic inflammatory markers | little to no change in inflammatory markers | reduced the amount of intracellular fat found within monocytes | inhibited expression of fatty acid uptake-related genes | prevents lipid accumulation | significantly less adipose tissue | smaller | prevented the increase in inflammatory monocytes | dramatically prevented |
